Laboratory results reported in patent US12410152B2, “Oxazole and thioazole-type cullin ring ubiquitin ligase compounds and uses thereof” (Proxygen GmbH, priority 2019, dated 2025).

Test system: KBM7 WT cells (global proteome)
Test: Quantitative expression proteomics (TMT isobaric tagging), drug vs DMSO
Format: cell-based, human
From the text: The mechanism by which the assayed molecules re-program a functional CRL4B complex based on the data shown could be that drug binding to CUL4B recruits a neo-substrate directly to the cullin backbone. Alternatively, drug binding could stabilize CUL4B function to boost time intervals where a functionally competent CUL4B complexes can be formed. Here, the word “functional” implies that the CUL4B backbone of this complex needs to be neddylated, and a CUL4B associated E2 ubiquitin-conjugating enzyme (UBE2G1) needs to be bound. FIG. 9 outlines one possible mechanism. Both predicted mechanisms of action would result in a functionally altered CRL4B complex, and thus an altered stability of drug-induced (neo-) substrates. In order to identify target proteins with a decreased abundance or, in other words, target proteins that become degraded by CRL4B after drug treatment, global proteome composition was measured using quantitative expression proteomics (TMT-labeling). In brief, KBM7 cells were drug treated for 12 hours, lysed, and subjected to isobaric tagging. Ensuing proteomics analysis quantified a total of 7,903 proteins at a minimum spectral count of 2. […] Data on essentiality are taken from Hart et al., G3, August 2017 (PMID: 28655737).
50×10^6 KBM7^WT cells per condition were collected, washed four times with ice-cold PBS, the supernatant aspirated and pellets snap-frozen in liquid N2. Each washed cell pellet was lysed separately in 40 μL of freshly prepared lysis buffer as previously described (see Mayor-Ruiz et al., Mol Cell 2019)
Offline Fractionation via RP-HPLC at high pH and 2D-RP/RP Liquid Chromatography Mass Spectrometry were performed as previously described (see Mayor-Ruiz et al., Mol Cell 2019).
Acquired raw data files were processed using the Proteome Discoverer 2.2.0 platform, utilizing the Sequest HT database search engine and Percolator validation software node (V3.04) to remove false positives with a false discovery rate (FDR) of 1% on peptide and protein level under strict conditions. Searches were performed with full tryptic digestion against the human SwissProt database v2017.06 with up to two allowed miscleavage sites. Oxidation (+15.9949 Da) of methionine was set as variable modification, whilst carbamidomethylation (+57.0214 Da) of cysteine residues and TMT 6-plex labelling of peptide N-termini and lysine residues were set as fixed modifications. Data was searched with mass tolerances of ±10 ppm and ±0.02 Da on the precursor and fragment ions, respectively. Results were filtered to include peptide spectrum matches (PSMs) with Sequest HT cross-correlation factor (Xcorr) scores of […] and high peptide confidence assigned by Percolator. MS^2 signal-to-noise values (S/N) values of TMT reporter ions were used to estimate peptide/protein abundance changes. PSMs with precursor isolation interference values of ≥ 50% and average TMT-reporter ion S/N≤10 were excluded from quantitation. Only unique peptides were used for TMT quantitation as well as for TOP3 label-free quantitation. Isotopic impurity correction and TMT channel-normalization based on total peptide amount were applied. For statistical analysis and p-value calculation, the integrated ANOVA hypothesis test was used. TMT ratios with p-values below 0.01 were considered as significant. Only proteins with >1 peptide detected and >1 unique peptide detected were considered for further analysis. For the calling of destabilized proteins, a log 2 fold change threshold (drug/DMSO) of −0.3 was applied.
Comparison of overall proteome-wide changes in KBM7 cells treated with IC020772.1 (2.5 μM), IC021313.2 (7 μM) or T6938051 (3.5 μM) for 5 h and 12h, using quantitative proteomics based on isobaric tagging.
The protein names in Table 4, Table 5 and Table 6 refer to the protein names as provided by HUGO Gene Nomenclature Committee (HGNC) database. […]

## Cc1ccc(C(=O)N2CSCC2C(=O)N=c2[nH]cc(C)s2)o1 (centres unmarked) [Compound T6938051]
KBM7 cells, 12 hours, ~10xEC50, 7,903 proteins quantified
  number of proteins significantly downregulated (log2FC < -0.3), destabilized proteins: 793
KBM7 cells, 12 hours, essentiality from Hart et al. 2017
  number of downregulated proteins known to be implicated in KBM7 proliferation (essential for KBM7 viability): 142
T6938051 vs DMSO
  number of proteins with log2FC < −0.3: T6938051: 793 proteins
T6938051 vs DMSO, essential = implicated in KBM7 proliferation
  number of essential proteins among proteins with log2FC < −0.3: log2FC < −0.3 (142 essential proteins)
Protein ABCF2 (accession Q9UG63-2), expression proteomics, drug vs DMSO, essential: false
  log2FC (T6938051/DMSO): −0.3004
